In patent publication US20040023884A1, “Biologically active peptides from functional domains of bactericidal/permeability-increasing protein and uses thereof” (priority 1993, published 2004):
Square brackets hold non-standard residues; d marks the D form. Ends that are not written are not given here. Peptide text beside a SMILES is read from it. 1Nal = N[C@@H](Cc1cccc2ccccc12)C(=O)O

What was measured:
Candida albicans = assay type: cell-based
RAW 264.7 cells = assay: LPS neutralization cellular proliferation assay, RAW 264.7 cells; assay type: cell-based, mouse
Experimental: In this assay, mouse RAW 264.7 cells (ATCC Accession No. T1B71), maintained in RPMI 1640 media (GIBCO), supplemented with 10 mM HEPES buffer (pH 7.4), 2 mM L-glutamine, penicillin (100U/mL), streptomcin (100 μg/mL), 0.075% sodium bicarbonate, […] 2-mercaptoethanol and 10% fetal bovine serum (Hyclone, Inc., Logan, Utah), were first induced by incubation in the presence of 50U/mL recombinant mouse y-interferon (Genzyme, Cambridge, Mass.) for 24 h prior to assay. Induced cells were then mechanically collected and centrifuged at 500×g at 4° C. and then resuspended in 50 mL RPMI 1640 media (without supplements), re-centrifuged and again resuspended in RPMI 1640 media (without supplements). The cells were counted and their concentration adjusted to 2×10^5 cells/mL and 100 μL aliquots were added to each well of a 96-well microtitre plate. The cells were then incubated for about 15 hours with E. coli O113 LPS (Control Standard. Assoc. of Cape Cod. Woods Hole, Mass.), which was added in 100 μL/well aliquots at a concentration of […] in serum-free RPMI 1640 media (this concentration being the result of titration experiments in which LPS concentration was varied between 50 pg/mL and 100 ng/mL). This incubation was performed in the absence or presence of BPI functional domain peptides in varying concentrations between 25 ng/mL and 50 μg/mL. Recombinant human BPI was used as a positive control at a concentration of 1 μg/mL. Cell proliferation was quantitatively measured by the addition of 1 μCi/well [^3H]-thymidine 5 hours after the time of initiation of the assay. After the 15-hour incubation, labeled cells were harvested onto glass fiber filters with a cell harvester (Inotech Biosystems, EQ-384, Sample Processing and Filter Counting System, Lansing, Mich.).

[1] = system: rough mutant E. coli J5 bacteria; assay: Radial diffusion bactericidal assay, E. coli J5; assay type: cell-based; details: for bactericidal activity (in words) / pmol added to well to achieve a 30 mm^2 bactericidal zone, E. coli J5: radial diffusion; for bactericidal activity (in words): E. coli J5; for pmol added to well to achieve a 30 mm^2 bactericidal zone, E. coli J5: PROBIT analysis, E. coli J5 (rough); for activity of position 95 substitution variants (in words): activity not further specified
Outline: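 Log-phase bacteria (3 h at 37 °C in tryptic soy broth), washed in 10 mM sodium phosphate pH 7.4, were embedded at 4×10^6 CFU/mL in underlayer agarose. BPI proteolytic fragments (5 or 10 μL) went into 3 mm wells for 3 h at 37 °C, then agarose overlay and overnight 37 °C growth. Clear zones were measured by micrometer.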

Staphylococcus aureus = assay: Radial diffusion bactericidal assay, Staphylococcus aureus; assay type: cell-based; details: radial diffusion; PROBIT analysis; S. aureus
[2] = system: E. coli 0111:B4 (smooth) bacteria; assay: Radial diffusion bactericidal assay, E. coli 0111:B4; assay type: cell-based; details: radial diffusion; PROBIT analysis; E. coli O111:B4 (smooth)
[3] = 3H-heparin binding assay (affinity and capacity); details: for Heparin Capacity: heparin bound at saturation; for Kd: read-out: Heparin Affinity
Outline: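 Peptide fragments were bound to PVDF-membrane wells and incubated with 3H-heparin in blocking buffer for 1 h at 4 °C. After washing, bound radioactivity was quantified by liquid scintillation counting, with BSA background subtracted; rBPI23 served as positive control.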

C. albicans = assay: Radial diffusion fungicidal assay, Candida albicans; assay type: cell-based; details: radial diffusion

Compound	MIC C. alb (Candida albicans) [µg/mL]	EC50 (peptide concentration at which the growth inhibitory effect of LPS was reversed by 50%) (RAW 264.7 cells)	IC50 (peptide concentration at which RAW cell growth was inhibited by 50%) (RAW 264.7 cells)	bactericidal activity (in words) [1]	pmol added to well to achieve a 30 mm^2 bactericidal zone, E. coli J5 [1]	pmol added to well to achieve a 30 mm^2 bactericidal zone, S. aureus (Staphylococcus aureus)	pmol added to well to achieve a 30 mm^2 bactericidal zone, E. coli O111:B4 [2]	heparin binding capacity (in words) [3]	Heparin Capacity [3] [ng]	Kd [3] [nM]	C. albicans: pmol required for 30 mm^2 zone (C. albicans) [pmol]	behaviour in the RAW 264.7 proliferation assay (in words) (RAW 264.7 cells)	activity of position 95 substitution variants (in words) [1]
CC(C)C[C@H](NC(=O)[C@H](Cc1ccccc1)NC(=O)[C@H](CCCNC(=N)N)NC(=O)[C@H](Cc1cccc2ccccc12)NC(=O)[C@H](Cc1cccc2ccccc12)NC(=O)[C@H](C)NC(=O)[C@H](CCCCN)NC(=O)[C@H](Cc1c[nH]c2ccccc12)NC(=O)[C@H](CCCCN)NC(=O)[C@H](CCCCN)NC(=O)[C@H](CC(C)C)NC(=O)[C@H](Cc1ccccc1)NC(=O)[C@H](CCCNC(=N)N)NC(=O)[C@H](Cc1cccc2ccccc12)NC(=O)[C@H](Cc1cccc2ccccc12)NC(=O)[C@H](C)NC(=O)[C@H](CCCCN)NC(=O)[C@H](Cc1c[nH]c2ccccc12)NC(=O)[C@H](CCCCN)NC(=O)[C@H](CCCCN)NC(=O)[C@H](CC(C)C)NC(=O)[C@H](Cc1ccccc1)NC(=O)[C@H](CCCNC(=N)N)NC(=O)[C@H](Cc1cccc2ccccc12)NC(=O)[C@H](Cc1cccc2ccccc12)NC(=O)[C@H](C)NC(=O)[C@H](CCCCN)NC(=O)[C@H](Cc1c[nH]c2ccccc12)NC(=O)[C@@H](N)CCCCN)C(=O)N[C@@H](CCCCN)C(=O)O [BPI.157] (H-KWKA[1Nal][1Nal]RFLKKWKA[1Nal][1Nal]RFLKKWKA[1Nal][1Nal]RFLK-OH; N-terminus and C-terminus assumed)	>100.00	comparable to BPI.29	lower IC5										
CC[C@H](C)[C@H](N)C(=O)N[C@@H](CCCCN)C(=O)N[C@H](C(=O)N[C@@H](CO)C(=O)NCC(=O)N[C@@H](CCCCN)C(=O)N[C@@H](Cc1c[nH]c2ccccc12)C(=O)N[C@@H](CCCCN)C(=O)N[C@@H](C)C(=O)N[C@@H](CCC(N)=O)C(=O)N[C@@H](CCCCN)C(=O)N[C@@H](CCCNC(=N)N)C(=O)N[C@@H](Cc1ccccc1)C(=O)N[C@@H](CC(C)C)C(=O)N[C@@H](CCCCN)C(=O)NCCCC[C@H](NC(=O)[C@H](CCCCN)NC(=O)[C@H](CC(C)C)NC(=O)[C@H](Cc1ccccc1)NC(=O)[C@H](CCCNC(=N)N)NC(=O)[C@H](CCCCN)NC(=O)[C@H](CCC(N)=O)NC(=O)[C@H](C)NC(=O)[C@H](CCCCN)NC(=O)[C@H](Cc1c[nH]c2ccccc12)NC(=O)[C@H](CCCCN)NC(=O)CNC(=O)[C@H](CO)NC(=O)[C@@H](NC(=O)[C@H](CCCCN)NC(=O)[C@@H](N)[C@@H](C)CC)[C@@H](C)CC)C(=O)NCCCC[C@H](NC(=O)[C@H](CCCCNC(=O)[C@H](CCCCN)NC(=O)[C@H](CC(C)C)NC(=O)[C@H](Cc1ccccc1)NC(=O)[C@H](CCCNC(=N)N)NC(=O)[C@H](CCCCN)NC(=O)[C@H](CCC(N)=O)NC(=O)[C@H](C)NC(=O)[C@H](CCCCN)NC(=O)[C@H](Cc1c[nH]c2ccccc12)NC(=O)[C@H](CCCCN)NC(=O)CNC(=O)[C@H](CO)NC(=O)[C@@H](NC(=O)[C@H](CCCCN)NC(=O)[C@@H](N)[C@@H](C)CC)[C@@H](C)CC)NC(=O)[C@H](CCCCN)NC(=O)[C@H](CC(C)C)NC(=O)[C@H](Cc1ccccc1)NC(=O)[C@H](CCCNC(=N)N)NC(=O)[C@H](CCCCN)NC(=O)[C@H](CCC(N)=O)NC(=O)[C@H](C)NC(=O)[C@H](CCCCN)NC(=O)[C@H](Cc1c[nH]c2ccccc12)NC(=O)[C@H](CCCCN)NC(=O)CNC(=O)[C@H](CO)NC(=O)[C@@H](NC(=O)[C@H](CCCCN)NC(=O)[C@@H](N)[C@@H](C)CC)[C@@H](C)CC)C(=O)NCCC(=O)O)[C@@H](C)CC [MAP.1, β-alanyl-Nα,Nε-substituted-{Nα,Nε(BPI.2)lysyl}lysine]		0.45 ± 0.1 µg/mL		highly bactericidal	105.71 pmol	1,382.60 pmol	552.79 pmol	extremely high heparin capacity	459.1	937			
CKSKVGWLIQLFHKKC [BPI.137]					1,390.00 pmol	b (no detectable activity up to 5 μg/well)	87,980.00 pmol				>2285.73		
IKISGKWKAFKRFLK [BPI.81]			14 ± 0.2 µg/mL		283.84 pmol	9,477.20 pmol	3,018.90 pmol		318.4	335		unable to reverse the growth inhibitory effect of LPS	
IKISGKWKAQFDRFLK [BPI.76]		>50 µg/mL	— (No proliferation decrease up to 50 μg/ml)		10,519.55 pmol	b (no detectable activity up to 5 μg/well)	b (no detectable activity up to 5 μg/well)		144.4	128			dramatically reduced activity, to levels lower than the original peptide (BPI.2)
IKISGKWKAQFRFLK [BPI.73]		22 ± 10 µg/mL	— (No proliferation decrease up to 50 μg/ml)	highly bactericidal	57.28 pmol	2,313,133.50 pmol	3,290.60 pmol	extremely high heparin capacity	413.4	227			improved activity compared with the alanine substitution species
IKISGKWKAQWRFLK [BPI.77]		10 ± 32 µg/mL	>50 µg/mL		455.08 pmol	1,684.35 pmol	b (no detectable activity up to 5 μg/well)		581.7	302			
KSKVFWLIQLFHKK [BPI.95]					330.88 pmol	b (no detectable activity up to 5 μg/well)	2,809.70 pmol		224.5	551	>1397.64		
KSKVGWLIQLFFKK [BPI.94]					922.54 pmol	9,446.60 pmol	3,658.80 pmol		216.1	407	>922.54		
KWAFAKKQKKRLKRQWLKKF [BPI.150]					220.00 pmol	b (no detectable activity up to 5 μg/well)	3,610.00 pmol				>2380.67		
KWKAAARFLKKSKVGWLIQLFHKK [BPI.145]					250.00 pmol	b (no detectable activity up to 5 μg/well)	9,561.00 pmol				>1886.58		
KWKAAARFLKKWKAQKRFLK [BPI.46]		1.9 ± 1.9 µg/mL	18.8 ± 0.8 µg/mL	highly bactericidal	186.69 pmol	3,810,752.30 pmol	2,970.26 pmol	extremely high heparin capacity	321.1	1070			
